pIC50: −log10 of the molar value.
What was measured:
Plasmodium falciparum [1] = assay: Antiplasmodial activity against chloroquine-resistant asexual erythrocyte stage form Plasmodium falciparum Dd2 measured after 48 hrs by pLDH assay; assay type: functional; conditions: Dd2, 48 h
[2] = Cytotoxicity against human WI38 cells assessed as reduction in cell viability measured after 48 hrs by SRB assay; assay type: toxicity, cell-based, WI-38
CHO [3] = assay: Selectivity index, ratio of IC50 for CHO cells to IC50 for human MCF7 cells; assay type: functional
Plasmodium falciparum [4] = assay: Antiplasmodial activity against chloroquine-sensitive asexual erythrocyte stage form Plasmodium falciparum NF54 measured after 48 hrs by pLDH assay; assay type: functional; conditions: NF54, 48 h
[5] = Selectivity index, ratio of IC50 for human WI38 cells to IC50 for chloroquine-sensitive asexual erythrocyte stage form Plasmodium falciparum NF54; assay type: toxicity, cell-based, WI-38; conditions: read-out: Ratio IC50
[6] = Growth inhibition of human TK10 cells measured after 24 hrs by SRB assay; assay type: functional, cell-based; conditions: TK-10, 24 h
[7] = Cytotoxicity against CHO cells assessed as reduction in cell viability measured after 48 hrs by MTT assay; assay type: toxicity, cell-based, Cricetulus griseus; conditions: Chinese hamster
[8] = Selectivity index, ratio of IC50 for CHO cells to IC50 for chloroquine-sensitive asexual erythrocyte stage form Plasmodium falciparum NF54; assay type: toxicity, cell-based; conditions: hamster, read-out: Ratio IC50
[9] = Growth inhibition of human MCF7 cells measured after 24 hrs by SRB assay; assay type: functional, cell-based; conditions: MCF7, 24 h
MCF7 = assay: Selectivity index, ratio of IC50 for human WI38 cells to IC50 for human MCF7 cells; assay type: functional
[10] = Selectivity index, ratio of IC50 for human MCF7 cells to IC50 for chloroquine-resistant asexual erythrocyte stage form Plasmodium falciparum Dd2; assay type: functional
[11] = Resistance index, ratio of IC50 for chloroquine-resistant asexual erythrocyte stage form Plasmodium falciparum Dd2 to IC50 for chloroquine-sensitive asexual erythrocyte stage form Plasmodium falciparum NF54; assay type: functional
[12] = Growth inhibition of human UACC62 cells measured after 24 hrs by SRB assay; assay type: functional, cell-based; conditions: UACC-62, 24 h
[13] = Thermal stability of the compound assessed as melting point by thermogravimetric analysis; assay type: physicochemical
[14] = Selectivity index, ratio of IC50 for human UACC62 cells to IC50 for chloroquine-resistant asexual erythrocyte stage form Plasmodium falciparum Dd2; assay type: functional, UACC-62
[15] = Thermal stability of the compound assessed as onset of decomposition temperature by thermogravimetric analysis; assay type: physicochemical
UACC-62 = assay: Selectivity index, ratio of IC50 for human WI38 cells to IC50 for human UACC62 cells; assay type: functional
WI-38 = assay: Selectivity index, ratio of IC50 for human WI38 cells to IC50 for human TK10 cells; assay type: functional
[16] = Selectivity index, ratio of IC50 for human TK10 cells to IC50 for chloroquine-resistant asexual erythrocyte stage form Plasmodium falciparum Dd2; assay type: functional, TK-10
CHO [17] = assay: Selectivity index, ratio of IC50 for CHO cells to IC50 for human UACC62 cells; assay type: functional

## CCCC(=O)OCC1(C)O[C@@H]2O[C@]3(C)CC[C@H]4[C@H](C)CC[C@@H]1[C@@]24OO3 (stereo partly specified)
Plasmodium falciparum [1]
  pIC50: 8.16
[2]
  IC50 at 48 h: > 100 µM
CHO [3]
  Ratio IC50: >2
Plasmodium falciparum [4]
  pIC50: 7.77
[5]
  selectivity ratio: > 5920
[6]
  pIC50: < 4.00
[7]
  IC50 at 48 h: > 100 µM
[8]
  selectivity ratio: > 5920
[9]
  pIC50: 4.27
MCF7
  Ratio IC50: >2
[10]
  Ratio IC50: 7768
[11]
  Ratio IC50: 0.4
[12]
  pIC50: < 4.00

## C[C@@H]1CC[C@H]2C(C)(COC(=O)c3cc4ccccc4o3)O[C@@H]3O[C@]4(C)CC[C@@H]1[C@]32OO4 (stereo partly specified)
Plasmodium falciparum [1]
  pIC50: 8.15
[2]
  IC50 at 48 h: > 100 µM
CHO [3]
  Ratio IC50: >6
[13]
  Tm: 172.1 °C
Plasmodium falciparum [4]
  pIC50: 7.84
[5]
  selectivity ratio: > 6850
[14]
  Ratio IC50: 11085
[6]
  pIC50: < 4.00
[7]
  IC50 at 48 h: > 100 µM
[8]
  selectivity ratio: > 6850
[9]
  pIC50: 4.74
MCF7
  Ratio IC50: >6
[10]
  Ratio IC50: 2563
[11]
  Ratio IC50: 0.5
[12]
  pIC50: 4.10

## C[C@@H]1CC[C@H]2C(C)(CO)O[C@@H]3O[C@]4(C)CC[C@@H]1[C@]32OO4 (stereo partly specified)
Plasmodium falciparum [1]
  pIC50: 8.13
[2]
  IC50 at 48 h: > 100 µM
[13]
  Tm: 160.9 °C
Plasmodium falciparum [4]
  pIC50: 8.39
[15]
  T: 144 °C
[5]
  selectivity ratio: > 24400
[6]
  pIC50: < 4.00
[7]
  IC50 at 48 h: > 100 µM
[8]
  selectivity ratio: > 24400
[9]
  pIC50: < 4.00
[11]
  Ratio IC50: 1.8
[12]
  pIC50: < 4.00

## Cc1ccsc1C(=O)OCC1(C)O[C@@H]2O[C@]3(C)CC[C@H]4[C@H](C)CC[C@@H]1[C@@]24OO3 (stereo partly specified)
Plasmodium falciparum [1]
  pIC50: 8.15
[2]
  IC50 at 48 h: > 100 µM
CHO [3]
  Ratio IC50: >15
Plasmodium falciparum [4]
  pIC50: 8.14
[5]
  selectivity ratio: > 13900
[14]
  Ratio IC50: 1958
[6]
  pIC50: < 4.00
[7]
  IC50 at 48 h: > 100 µM
[8]
  selectivity ratio: > 13900
[9]
  pIC50: 5.17
MCF7
  Ratio IC50: >15
[10]
  Ratio IC50: 958
[11]
  Ratio IC50: 1
[12]
  pIC50: 4.86

## C[C@@H]1CC[C@H]2C(C)(C=O)O[C@@H]3O[C@]4(C)CC[C@@H]1[C@]32OO4 (stereo partly specified)
Plasmodium falciparum [1]
  pIC50: 8.39
[2]
  IC50 at 48 h: > 100 µM
[13]
  Tm: 174.9 °C
Plasmodium falciparum [4]
  pIC50: 8.16
UACC-62
  Ratio IC50: >13
[5]
  selectivity ratio: > 14500
[14]
  Ratio IC50: 1900
[6]
  pIC50: 4.44
[7]
  IC50 at 48 h: > 100 µM
WI-38
  Ratio IC50: >3
[8]
  selectivity ratio: > 14500
[9]
  pIC50: 5.19
MCF7
  Ratio IC50: 6
[10]
  Ratio IC50: 1560
[16]
  Ratio IC50: 8927
[11]
  Ratio IC50: 0.6
[12]
  pIC50: 5.11

## CC(=O)Oc1ccccc1C(=O)OCC1(C)O[C@@H]2O[C@]3(C)CC[C@H]4[C@H](C)CC[C@@H]1[C@@]24OO3 (stereo partly specified)
Plasmodium falciparum [1]
  pIC50: 8.37
[2]
  IC50 at 48 h: > 100 µM
CHO [3]
  Ratio IC50: >10
[13]
  Tm: 175.2 °C
Plasmodium falciparum [4]
  pIC50: 8.57
[5]
  selectivity ratio: > 37000
[14]
  Ratio IC50: 4419
[6]
  pIC50: < 4.00
[7]
  IC50 at 48 h: > 100 µM
[8]
  selectivity ratio: > 37000
[9]
  pIC50: 4.98
MCF7
  Ratio IC50: >10
[10]
  Ratio IC50: 2442
[11]
  Ratio IC50: 1.6
[12]
  pIC50: 4.72

## CCCCCC(=O)OCC1(C)O[C@@H]2O[C@]3(C)CC[C@H]4[C@H](C)CC[C@@H]1[C@@]24OO3 (stereo partly specified)
Plasmodium falciparum [1]
  pIC50: 7.36
[2]
  IC50 at 48 h: > 100 µM
CHO [3]
  Ratio IC50: >2
Plasmodium falciparum [4]
  pIC50: 7.22
[5]
  selectivity ratio: > 1660
[6]
  pIC50: < 4.00
[7]
  IC50 at 48 h: > 100 µM
[8]
  selectivity ratio: > 1660
[9]
  pIC50: 4.32
MCF7
  Ratio IC50: >2
[10]
  Ratio IC50: 1100
[11]
  Ratio IC50: 0.7
[12]
  pIC50: < 4.00

## C[C@@H]1CC[C@H]2C(C)(COC(=O)CCc3ccccc3)O[C@@H]3O[C@]4(C)CC[C@@H]1[C@]32OO4 (stereo partly specified)
Plasmodium falciparum [1]
  pIC50: 7.94
[2]
  IC50 at 48 h: > 100 µM
CHO [3]
  Ratio IC50: >3
Plasmodium falciparum [4]
  pIC50: 8.13
CHO [17]
  Ratio IC50: >1.4
UACC-62
  Ratio IC50: >1.4
[5]
  selectivity ratio: > 13500
[14]
  Ratio IC50: 6026
[6]
  pIC50: < 4.00
[7]
  IC50 at 48 h: > 100 µM
[8]
  selectivity ratio: > 13500
[9]
  pIC50: 4.47
MCF7
  Ratio IC50: >3
[10]
  Ratio IC50: 2974
[11]
  Ratio IC50: 1.6
[12]
  pIC50: 4.16

## C[C@@H]1CC[C@H]2C(C)(COC(=O)c3ccco3)O[C@@H]3O[C@]4(C)CC[C@@H]1[C@]32OO4 (stereo partly specified)
Plasmodium falciparum [1]
  pIC50: 8.43
[2]
  IC50 at 48 h: > 100 µM
[13]
  Tm: 177.3 °C
Plasmodium falciparum [4]
  pIC50: 8.04
[5]
  selectivity ratio: > 10900
[6]
  pIC50: < 4.00
[7]
  IC50 at 48 h: > 100 µM
[8]
  selectivity ratio: > 10900
[9]
  pIC50: < 4.00
[11]
  Ratio IC50: 0.4
[12]
  pIC50: < 4.00

## C[C@@H]1CC[C@H]2C(C)(COC(=O)c3cccs3)O[C@@H]3O[C@]4(C)CC[C@@H]1[C@]32OO4 (stereo partly specified)
Plasmodium falciparum [1]
  pIC50: 8.23
[2]
  IC50 at 48 h: > 100 µM
CHO [3]
  Ratio IC50: >2
[13]
  Tm: 170.8 °C
Plasmodium falciparum [4]
  pIC50: 8.32
[5]
  selectivity ratio: > 20800
[14]
  Ratio IC50: 6661
[6]
  pIC50: < 4.00
[7]
  IC50 at 48 h: > 100 µM
[8]
  selectivity ratio: > 20800
[9]
  pIC50: 4.33
MCF7
  Ratio IC50: >2
[10]
  Ratio IC50: 7898
[11]
  Ratio IC50: 1.2
[12]
  pIC50: 4.41

## C=C1C(=O)O[C@@H]2C3O[C@]3(C)CC/C=C(\C)CC[C@@H]12 (stereo partly specified)
[6]
  pIC50: 5.19
[9]
  pIC50: 5.24
[12]
  pIC50: 4.82

## CO[C@H]1O[C@@H]2O[C@@]3(C)CC[C@H]4[C@H](C)CC[C@@H]([C@H]1C)[C@@]24OO3 [ARTEMETHER]
Plasmodium falciparum [1]
  pIC50: 8.64
[13]
  Tm: 186 °C
Plasmodium falciparum [4]
  pIC50: 8.42
[7]
  IC50 at 48 h: > 100 µM
[8]
  selectivity ratio: > 26300
[11]
  Ratio IC50: 0.6

## C[C@H]1[C@@H](O)O[C@@H]2O[C@@]3(C)CC[C@H]4[C@H](C)CC[C@@H]1[C@@]24OO3 [ARTENIMOL]
Plasmodium falciparum [1]
  pIC50: 8.92
[13]
  Tm: 160 °C
Plasmodium falciparum [4]
  pIC50: 8.66
[7]
  IC50 at 48 h: > 100 µM
[8]
  selectivity ratio: > 45500
[11]
  Ratio IC50: 0.6

## C[C@H]1[C@H](OC(=O)CCC(=O)O)O[C@@H]2O[C@@]3(C)CC[C@H]4[C@H](C)CC[C@@H]1[C@@]24OO3 [ARTESUNATE]
Plasmodium falciparum [1]
  pIC50: 8.12
[2]
  IC50 at 48 h: > 100 µM
[13]
  Tm: 134.7 °C
Plasmodium falciparum [4]
  pIC50: 8.10
[5]
  selectivity ratio: > 12500
[7]
  IC50 at 48 h: > 100 µM
[8]
  selectivity ratio: > 12500
[11]
  Ratio IC50: 0.9

## CC[C@H]1CN2CCc3cc(OC)c(OC)cc3[C@@H]2C[C@@H]1C[C@H]1NCCc2cc(OC)c(OC)cc21 [EMETINE]
[2]
  IC50 at 48 h: 0.05 µM
[7]
  IC50 at 48 h: 0.29 µM

From ChEMBL document CHEMBL3865826, “Synthesis and biological evaluation of a series of non-hemiacetal ester derivatives of artemisinin” (Eur J Med Chem, 2016)
